Test results from patent US20050096323A1, “Diketopiperazine derivatives to inhibit thrombin” (NovoScience Pharma Inc., priority 1999, published 2005).
Counter-ions that a name gives are not always drawn.

How the values were obtained:
SD rats [1] = test: RT, TT, PT, APTT and FIB in rat plasma after administration; format: in vivo; set-up: FIB (Fibrillation) / RT (Clot Retraction Time) / TT (Thrombin Time): unit not given here
Description: Blood was taken at 0.5 h and 1.5 h after i.v. injection and at 1 h and 3 h after i.g. and plasma RT,TT,PT,APTT and FIB were determined.

ICR mice = test: Clotting time (CT) of mice whole blood after administration; format: in vivo
Description: Blood samples were collected using the capillary method 0.5 h and 1.5 h after i.v. injections and 1 h and 3 h after i.g. and clotting time of whole blood was measured.

[2] = Acute toxicity, intravenous injection, determination of LD50; format: in vivo, mice; settings: both sexes, ICR, mouse, in vivo, iv, ICR mice, single i.v., Bliss method
From the text: 1) Determination of LD50 (Tables III and IV): ICR mice, 18 ˜20 g, were divided into five groups, with 10 animals in each group (half male and half female). The ratio of doses between groups was 1:0.85.

urokinase = target: T1, urokinase (Homo sapiens, UniProt P00749); test: Urokinase inhibition constant (Ki), fluorogenic substrate assay; format: biochemical
T1 construct: purchased Sigma
Description: (§1) The activity and selectivity of the present invention can be identified by determination of the inhibition constant (Ki) for serine proteases such thrombin and trypsin and fibrinolytic enzymes such as urokinase, plasmin and tissue plasminogen activator (tPA). All of enzymes are purchased from Sigma. The general assay conditions are as follows. The fluorogenic substrates are dissolved in DMSO and diluted using assay buffer containing 50 mM Tris.HCl (pH 7.8 at 25° C.), 0.1 M NaCl and 0.1% polyethylene glycol 8000 (PEG 8000). […] The assays were conducted using Hitachi F2500 spectrophotometer under ambient temperature and at the excitation and emission wavelengths of 383 nm and 455 nm, respectively. The typical progressive data of the enzymatic assays are shown in FIGS. 1-3, and the determination of inhibition constant (Ki) is shown in FIG. 4.

SD rats [3] = test: Weight of deep vein thrombosis (inferior vena cava thrombi) in rats; format: in vivo, rat; settings: for Thrombi (mg) Dry weight / Thrombi (mg) Wet weight: 4 hours
Description: The drug was administered immediately after operation and, 4 hours later, the thrombi were collected and weighted.

[4] = target: T2, tissue plasminogen activator (tPA) (Homo sapiens, UniProt P00750); test: tPA inhibition constant (Ki), fluorogenic substrate assay; format: biochemical
T2 construct: purchased Sigma
T2 sequence (P00750 36-562, species assumed): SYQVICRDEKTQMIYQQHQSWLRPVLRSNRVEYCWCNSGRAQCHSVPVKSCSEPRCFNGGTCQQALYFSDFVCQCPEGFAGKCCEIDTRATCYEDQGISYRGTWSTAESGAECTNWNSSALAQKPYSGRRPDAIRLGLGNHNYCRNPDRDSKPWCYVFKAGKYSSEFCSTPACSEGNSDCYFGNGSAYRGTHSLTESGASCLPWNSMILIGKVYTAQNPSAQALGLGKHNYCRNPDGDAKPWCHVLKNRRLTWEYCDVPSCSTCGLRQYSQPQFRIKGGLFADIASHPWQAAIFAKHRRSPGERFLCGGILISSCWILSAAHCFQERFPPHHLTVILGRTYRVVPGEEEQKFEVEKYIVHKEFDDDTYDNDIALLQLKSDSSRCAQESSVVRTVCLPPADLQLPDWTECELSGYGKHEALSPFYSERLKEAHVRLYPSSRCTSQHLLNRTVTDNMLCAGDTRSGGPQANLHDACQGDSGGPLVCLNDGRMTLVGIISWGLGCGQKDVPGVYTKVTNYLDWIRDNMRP
Description: as §1

trypsin = target: T3, trypsin (Bos taurus, UniProt P00760); test: Trypsin inhibition constant (Ki), fluorogenic substrate assay; format: biochemical
T3 sequence (P00760 24-246): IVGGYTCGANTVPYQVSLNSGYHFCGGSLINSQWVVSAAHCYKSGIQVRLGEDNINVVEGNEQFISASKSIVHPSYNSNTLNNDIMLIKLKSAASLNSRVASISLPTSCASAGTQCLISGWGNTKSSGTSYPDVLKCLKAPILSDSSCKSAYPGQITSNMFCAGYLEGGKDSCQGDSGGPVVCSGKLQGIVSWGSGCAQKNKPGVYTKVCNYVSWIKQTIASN
Description: as §1

[5] = i.v. 0.25 mg/kg, first time point (0.5 h)
[6] = i.v. 0.25 mg/kg, second time point (1.5 h)

## CC1CNc2c(cccc2S(=O)(=O)N2C(=O)C3CC(C)CCN3C(=O)C2CCCNC(=N)N)C1 [NPI1999, (3S,6R,8R)-Bicyclo[4.4.0]-1,4-diaza-3-(3-guanidinopropyl)-4-N-(1,2,3,4-tetrahydro-3-methyl-8-quinolinesulfonyl)-8-methyl-2,5-decanedione, hydrochoride salt]
SD rats [1]; 0.25 mg/kg i.v., 1.5 h
  RT (Clot Retraction Time): 78.6 ± 16
  TT (Thrombin Time): 49.6 ± 10.9
SD rats [1]; 75 mg/kg i.g., 1 h
  APTT (Activated Partial Prothromboplastin Time): 30.2 ± 6.9
  FIB (Fibrillation): 4.4 ± 0.7
  PT (Prothrombin Time): 26.6 ± 5.5
  RT (Clot Retraction Time): 74.8 ± 16.6
  TT (Thrombin Time): 53.2 ± 10.0
SD rats [1]; 75 mg/kg i.g., 3.0 h
  APTT (Activated Partial Prothromboplastin Time): 25.7 ± 4.0
  FIB (Fibrillation): 4.5 ± 0.6
  PT (Prothrombin Time): 26.6 ± 5.7
  RT (Clot Retraction Time): 77 ± 29.9
  TT (Thrombin Time): 42.5 ± 9.4
SD rats [1]; i.g. 75 mg/kg, 1 h or 3 h
  RT, TT, PT, APTT, FIB indexes: None of the indexes was significantly affected
SD rats [1]; i.v. 0.125 mg/kg, first time point
  RT, TT, PT, APTT, FIB indexes: RT alone was increased
SD rats [1]; i.v. 0.125 mg/kg, second time point
  RT, TT, PT, APTT, FIB indexes: none of the indexes were affected significantly
SD rats [1]; [5]
  FIB: reduced
  RT, TT, PT and APTT: significantly increased
SD rats [1]; [6]
  APTT and FIB: no significantly affected
  RT, TT, PT: Only RT,TT,PT were increased
ICR mice; 0.25 mg/kg i.v. group, before administration
  CT (clotting time of whole blood): 128.53 ± 27.14
ICR mice; 0.25 mg/kg i.v., 0.5 h
  CT (clotting time of whole blood): 140.02 ± 26.40
ICR mice; 0.25 mg/kg i.v., 1.5 h
  CT (clotting time of whole blood): 139.88 ± 30.40
ICR mice; 0.5 mg/kg i.v. group, before administration
  CT (clotting time of whole blood): 125.53 ± 25.03
ICR mice; 0.5 mg/kg i.v., 0.5 h
  CT (clotting time of whole blood): 172.88 ± 34.26
ICR mice; 0.5 mg/kg i.v., 1.5 h
  CT (clotting time of whole blood): 161.76 ± 40.10
ICR mice; 1 mg/kg i.v. group, before administration
  CT (clotting time of whole blood): 124.06 ± 28.96
ICR mice; 1 mg/kg i.v., 0.5 h
  CT (clotting time of whole blood): 165.12 ± 30.57
ICR mice; 1 mg/kg i.v., 1.5 h
  CT (clotting time of whole blood): 163.62 ± 44.26
ICR mice; 75 mg/kg i.g. group, before administration
  CT (clotting time of whole blood): 126.11 ± 22.83
ICR mice; 75 mg/kg i.g., 1 h
  CT (clotting time of whole blood): 133.11 ± 29.00
ICR mice; 75 mg/kg i.g., 3.0 h
  CT (clotting time of whole blood): 119.39 ± 25.88
ICR mice; 150 mg/kg i.g. group, before administration
  CT (clotting time of whole blood): 125.50 ± 23.67
ICR mice; 150 mg/kg i.g., 1 h
  CT (clotting time of whole blood): 128.06 ± 30.03
ICR mice; 150 mg/kg i.g., 3.0 h
  CT (clotting time of whole blood): 119.44 ± 26.01
ICR mice; i.g. 75 mg/kg and 150 mg/kg, 1 h and 3 h
  clotting time compared to controls: No significant difference
ICR mice; i.v. 0.5 mg/kg and 1 mg/kg, 0.5 h and 1.5 h
  clotting time compared to controls: significantly prolonged
[2]
  95% confidence interval of LD50 at 2 weeks: 10 to 11.9 mg/kg
[2]; observed 2 weeks
  LD50 at 2 weeks: 10.9 mg/kg
urokinase; enzyme = urokinase
  Cycloargatroban [Ki (Enzyme)/Ki (Thrombin)] vs. Argatroban [Ki (Enzyme)/Ki (Thrombin)]: −0.14 fold
urokinase; substrate N-Cbz-Gly-Gly-Arg-AMC
  Ki: 295 µM
SD rats [3]; 0.125 mg/kg i.v.
  Thrombi (mg) Dry weight: 7.62 ± 6.18 mg
  Thrombi (mg) Wet weight: 19.84 ± 12.17 mg
SD rats [3]; 0.25 mg/kg i.v.
  Thrombi (mg) Dry weight: 6.70 ± 4.34 mg
  Thrombi (mg) Wet weight: 19.63 ± 12.02 mg
SD rats [3]; 0.50 mg/kg i.v.
  Thrombi (mg) Dry weight: 5.81 ± 3.25 mg
  Thrombi (mg) Wet weight: 18.85 ± 8.61 mg
SD rats [3]; 75 mg/kg intraduodenum
  Thrombi (mg) Dry weight: 11.66 ± 4.23 mg
  Thrombi (mg) Wet weight: 32.02 ± 19.34 mg
SD rats [3]; i.v. groups (0.125, 0.25, 0.5 mg/kg)
  thrombi weights: thrombi weights were decreased
SD rats [3]; intra-duodenum 75 mg/kg
  thrombi weights: no obvious effect
[4]; enzyme = tPA
  Cycloargatroban [Ki (Enzyme)/Ki (Thrombin)] vs. Argatroban [Ki (Enzyme)/Ki (Thrombin)]: +1.2 fold
[4]; substrate Boc-L-(p-F) FPR-ANSNH-C2H5
  Ki: 2020 µM
trypsin; listed as Cycloargatroban
  Cycloargatroban [Ki (Enzyme)/Ki (Thrombin)] vs. Argatroban [Ki (Enzyme)/Ki (Thrombin)]: +12 fold
trypsin; listed as cycloargatroban
  Cycloargatroban [Ki (Enzyme)/Ki (Thrombin)] vs. Argatroban [Ki (Enzyme)/Ki (Thrombin)]: 12 fold
